Data: ChEMBL document CHEMBL5346907, “Discovery of a novel oral type Ⅰ CDK8 inhibitor against acute myeloid leukemia” (Eur J Med Chem, 2023)
Active and inactive are the calls of the source. No cut-off for these calls is given here.

Key:
[1] = target: Vascular endothelial growth factor receptor 2 (Homo sapiens) (UniProt P35968); assay: Inhibition of KDR (unknown origin) at 1 uM preincubated for 10 mins followed by substrate addition measured for 60 to 120 mins by HTRF assay relative to control; conditions: time 70-130 min
HCT-116 [2] = assay: Downregulation of STAT5 S726 phosphorylation in human HCT-116 cells incubated for 12 hrs by Western blot analysis; type: functional, cell-based; conditions: dose 1-10 µM
[3] = target: Cyclin-dependent kinase 5/CDK5 activator 1 (Homo sapiens) (UniProt Q00535+Q15078); assay: Inhibition of CDK5/p35NCK (unknown origin) at 1 uM preincubated for 10 mins followed by substrate addition measured for 60 to 120 mins by HTRF assay relative to control; type: protein-complex assay; conditions: time 70-130 min
[4] = Clearance in Sprague-Dawley rat at 10 mg/kg, po; type: ADME, organism-based; conditions: in vivo
[5] = Acute toxicity in C57BL/6 mouse assessed as histopathological change in kidney at 2000 mg/kg, IG measured for 14 days by H&E staining based analysis; type: organism-based; conditions: in vivo, po, 336 h, time 14 day
CDK6/cyclin D1 = CDK6/cyclin D1 (Homo sapiens, UniProt Q00534); assay: Inhibition of CDK6/Cyclin D1 (unknown origin) preincubated for 10 mins followed by substrate addition measured for 60 to 120 mins by HTRF assay; type: protein-complex assay
[6] = target: CDK7/Cyclin H/MNAT1 (Homo sapiens) (UniProt P51946+P50613+P51948); assay: Inhibition of CDK7/Cyclin H/MAT1 (unknown origin) at 1 uM preincubated for 10 mins followed by substrate addition measured for 60 to 120 mins by HTRF assay relative to control; type: protein-complex assay; conditions: time 70-130 min
[7] = target: Cyclin-dependent kinase 8 (Homo sapiens, UniProt P49336); assay: Binding affinity to flag-tagged CDK8 (unknown origin) transfected in HEK-293T cells upto 4 uM incubated for 12 hrs by biotin pull down based Western blot analysis; type: cell-based
[8] = target: Insulin receptor-related protein (Homo sapiens) (UniProt P14616); assay: Inhibition of IRR (unknown origin) at 1 uM preincubated for 10 mins followed by substrate addition measured for 60 to 120 mins by HTRF assay relative to control; conditions: time 70-130 min
[9] = target: Ephrin type-B receptor 1 (Homo sapiens) (UniProt P54762); assay: Inhibition of EPHB1 (unknown origin) at 1 uM preincubated for 10 mins followed by substrate addition measured for 60 to 120 mins by HTRF assay relative to control; conditions: time 70-130 min
[10] = target: CDK9/cyclin T1 (Homo sapiens) (UniProt O60563+P50750); assay: Inhibition of CDK9/Cyclin T1 (unknown origin) at 1 uM preincubated for 10 mins followed by substrate addition measured for 60 to 120 mins by HTRF assay relative to control; type: protein-complex assay; conditions: time 70-130 min
[11] = target: Ephrin type-B receptor 4 (Homo sapiens) (UniProt P54760); assay: Inhibition of EPHB4 (unknown origin) at 1 uM preincubated for 10 mins followed by substrate addition measured for 60 to 120 mins by HTRF assay relative to control; conditions: time 70-130 min
[12] = target: Cyclin-dependent kinase 2/cyclin E1 (Homo sapiens, UniProt P24941); assay: Inhibition of CDK2/Cyclin E1 (unknown origin) preincubated for 10 mins followed by substrate addition measured for 60 to 120 mins by HTRF assay; type: protein-complex assay
[13] = target: Receptor tyrosine-protein kinase erbB-4 (Homo sapiens) (UniProt Q15303); assay: Inhibition of HER4 (unknown origin) at 1 uM preincubated for 10 mins followed by substrate addition measured for 60 to 120 mins by HTRF assay relative to control; conditions: time 70-130 min
[14] = target: Tyrosine-protein kinase SYK (Homo sapiens) (UniProt P43405); assay: Inhibition of SYK (unknown origin) at 1 uM preincubated for 10 mins followed by substrate addition measured for 60 to 120 mins by HTRF assay relative to control; conditions: time 70-130 min
[15] = target: Tyrosine-protein kinase SRMS (Homo sapiens) (UniProt Q9H3Y6); assay: Inhibition of SRM (unknown origin) at 1 uM preincubated for 10 mins followed by substrate addition measured for 60 to 120 mins by HTRF assay relative to control; conditions: time 70-130 min
[16] = Acute toxicity in C57BL/6 mouse assessed as histopathological change in heart at 2000 mg/kg, IG measured for 14 days by H&E staining based analysis; type: organism-based; conditions: in vivo, po, 336 h, time 14 day
[17] = target: Cyclin-Y/Cyclin-dependent kinase 16 (Homo sapiens) (UniProt Q00536+Q8ND76); assay: Inhibition of CDK16/CyclinY (unknown origin) at 1 uM preincubated for 10 mins followed by substrate addition measured for 60 to 120 mins by HTRF assay relative to control; type: protein-complex assay; conditions: time 70-130 min
HCT-116 [18] = assay: Antiproliferative activity against human HCT-116 cells incubated for 48 hrs by CCK8 assay; type: functional
[19] = target: Tyrosine-protein kinase Lyn (Homo sapiens) (UniProt P07948); assay: Inhibition of LYNb (unknown origin) at 1 uM preincubated for 10 mins followed by substrate addition measured for 60 to 120 mins by HTRF assay relative to control; conditions: time 70-130 min
MOLM-13 = assay: Antiproliferative activity against human MOLM-13 cells incubated for 48 hrs by CCK8 assay; type: functional
[20] = target: CDK1/Cyclin E (Homo sapiens) (UniProt P06493+P24864); assay: Inhibition of CDK1/Cyclin E1 (unknown origin) at 1 uM preincubated for 10 mins followed by substrate addition measured for 60 to 120 mins by HTRF assay relative to control; type: protein-complex assay; conditions: time 70-130 min
[21] = target: Ephrin type-A receptor 6 (Homo sapiens) (UniProt Q9UF33); assay: Inhibition of EPHA6 (unknown origin) at 1 uM preincubated for 10 mins followed by substrate addition measured for 60 to 120 mins by HTRF assay relative to control; conditions: time 70-130 min
[22] = target: Tyrosine-protein kinase FRK (Homo sapiens) (UniProt P42685); assay: Inhibition of FRK (unknown origin) at 1 uM preincubated for 10 mins followed by substrate addition measured for 60 to 120 mins by HTRF assay relative to control; conditions: time 70-130 min
[23] = Tmax in Sprague-Dawley rat at 2 mg/kg, iv; type: ADME, organism-based; conditions: in vivo
HL-60 [24] = assay: Induction of apoptosis in human HL-60 cells assessed as early apoptosis cells at 1 uM incubated for 48 hrs by annexin V-FITC/PI staining based flow cytometry (reference value: 2.08 %); type: functional
CDK9/cyclin T1 = CDK9/cyclin T1 (Homo sapiens, UniProt P50750); assay: Inhibition of CDK9/Cyclin T1 (unknown origin) preincubated for 10 mins followed by substrate addition measured for 60 to 120 mins by HTRF assay; type: protein-complex assay
[25] = Clearance in Sprague-Dawley rat at 2 mg/kg, iv; type: ADME, organism-based; conditions: in vivo
HL-60 [26] = assay: Effect on cell cycle at S phase in human HL-60 cells at 1 to 10 uM incubated for 48 hrs by […]PI staining based flow cytometry; type: functional; conditions: dose 1-10 µM
[27] = target: Tyrosine-protein kinase Tec (Homo sapiens) (UniProt P42680); assay: Inhibition of TEC (unknown origin) at 1 uM preincubated for 10 mins followed by substrate addition measured for 60 to 120 mins by HTRF assay relative to control; conditions: time 70-130 min
[28] = target: Macrophage-stimulating protein receptor (Homo sapiens) (UniProt Q04912); assay: Inhibition of RON (unknown origin) at 1 uM preincubated for 10 mins followed by substrate addition measured for 60 to 120 mins by HTRF assay relative to control; conditions: time 70-130 min

CDK6/cyclin D1, sequence (P24385 whole entry): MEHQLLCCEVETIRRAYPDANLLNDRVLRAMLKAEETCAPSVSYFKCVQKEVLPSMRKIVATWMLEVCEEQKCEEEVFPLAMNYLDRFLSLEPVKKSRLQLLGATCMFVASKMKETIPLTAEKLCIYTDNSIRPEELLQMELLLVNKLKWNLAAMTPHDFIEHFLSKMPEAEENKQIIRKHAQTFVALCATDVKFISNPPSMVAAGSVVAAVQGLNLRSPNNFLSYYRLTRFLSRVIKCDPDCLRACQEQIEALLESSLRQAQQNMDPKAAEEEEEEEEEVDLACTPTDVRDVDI
CDK6/cyclin D1, sequence (Q00534 whole entry): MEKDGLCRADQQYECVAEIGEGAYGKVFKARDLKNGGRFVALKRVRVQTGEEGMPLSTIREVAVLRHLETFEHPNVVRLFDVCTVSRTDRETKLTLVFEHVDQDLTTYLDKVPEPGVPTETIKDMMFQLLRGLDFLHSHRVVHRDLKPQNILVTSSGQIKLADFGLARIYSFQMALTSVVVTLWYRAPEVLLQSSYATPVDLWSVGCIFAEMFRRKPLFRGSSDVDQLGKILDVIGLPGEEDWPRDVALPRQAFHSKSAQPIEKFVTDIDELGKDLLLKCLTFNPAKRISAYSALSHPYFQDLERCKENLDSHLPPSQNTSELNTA
CDK9/cyclin T1, sequence (O60563 whole entry): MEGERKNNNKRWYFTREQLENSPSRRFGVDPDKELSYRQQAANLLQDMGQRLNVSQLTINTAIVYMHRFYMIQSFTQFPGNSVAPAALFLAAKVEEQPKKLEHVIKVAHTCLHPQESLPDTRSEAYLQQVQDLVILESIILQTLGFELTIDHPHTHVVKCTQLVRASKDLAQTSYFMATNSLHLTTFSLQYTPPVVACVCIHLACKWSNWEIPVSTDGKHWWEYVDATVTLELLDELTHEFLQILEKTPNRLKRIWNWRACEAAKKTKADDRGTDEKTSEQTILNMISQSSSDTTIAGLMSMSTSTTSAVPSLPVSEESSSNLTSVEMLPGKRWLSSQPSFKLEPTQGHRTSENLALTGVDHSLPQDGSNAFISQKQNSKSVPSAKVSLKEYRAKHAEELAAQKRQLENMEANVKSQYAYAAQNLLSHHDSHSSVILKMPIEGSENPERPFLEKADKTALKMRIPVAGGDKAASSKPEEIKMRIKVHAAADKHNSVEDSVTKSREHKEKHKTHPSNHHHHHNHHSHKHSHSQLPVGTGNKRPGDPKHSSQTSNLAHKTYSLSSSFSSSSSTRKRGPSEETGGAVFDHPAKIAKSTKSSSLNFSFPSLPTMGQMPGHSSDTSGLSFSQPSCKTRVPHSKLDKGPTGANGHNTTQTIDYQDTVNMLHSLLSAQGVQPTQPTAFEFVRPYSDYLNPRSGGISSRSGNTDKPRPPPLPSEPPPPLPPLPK
CDK9/cyclin T1, sequence (P50750 whole entry): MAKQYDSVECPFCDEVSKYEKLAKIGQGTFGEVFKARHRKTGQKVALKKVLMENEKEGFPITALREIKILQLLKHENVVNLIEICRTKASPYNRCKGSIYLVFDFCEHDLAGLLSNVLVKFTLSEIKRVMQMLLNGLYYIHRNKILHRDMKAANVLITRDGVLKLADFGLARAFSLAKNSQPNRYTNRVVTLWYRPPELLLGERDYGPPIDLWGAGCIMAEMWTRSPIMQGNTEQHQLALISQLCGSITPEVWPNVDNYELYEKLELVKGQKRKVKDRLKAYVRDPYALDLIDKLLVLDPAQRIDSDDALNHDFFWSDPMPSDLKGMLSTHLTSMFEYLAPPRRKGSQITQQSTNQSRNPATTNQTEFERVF
Insulin receptor-related protein (Homo sapiens), sequence (P14616 27-742 limits assumed): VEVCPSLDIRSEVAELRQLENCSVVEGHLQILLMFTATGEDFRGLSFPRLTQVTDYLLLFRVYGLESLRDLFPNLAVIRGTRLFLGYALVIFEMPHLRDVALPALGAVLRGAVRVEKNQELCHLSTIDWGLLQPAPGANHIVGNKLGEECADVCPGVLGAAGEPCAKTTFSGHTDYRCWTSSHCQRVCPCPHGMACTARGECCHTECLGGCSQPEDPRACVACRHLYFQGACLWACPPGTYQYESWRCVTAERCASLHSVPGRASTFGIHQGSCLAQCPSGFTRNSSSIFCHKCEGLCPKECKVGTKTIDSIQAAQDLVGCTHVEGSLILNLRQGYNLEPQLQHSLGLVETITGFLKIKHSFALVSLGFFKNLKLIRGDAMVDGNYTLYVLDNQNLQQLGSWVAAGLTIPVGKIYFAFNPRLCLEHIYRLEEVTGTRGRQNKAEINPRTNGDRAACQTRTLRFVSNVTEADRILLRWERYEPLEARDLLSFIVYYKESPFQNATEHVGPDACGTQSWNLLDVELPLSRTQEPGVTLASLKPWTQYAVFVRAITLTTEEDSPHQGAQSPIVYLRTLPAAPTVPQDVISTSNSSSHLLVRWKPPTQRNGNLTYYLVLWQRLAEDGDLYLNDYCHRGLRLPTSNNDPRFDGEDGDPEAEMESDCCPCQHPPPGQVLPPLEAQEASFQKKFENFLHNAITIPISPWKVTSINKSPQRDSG
Insulin receptor-related protein (Homo sapiens), sequence (P14616 747-1297 limits assumed): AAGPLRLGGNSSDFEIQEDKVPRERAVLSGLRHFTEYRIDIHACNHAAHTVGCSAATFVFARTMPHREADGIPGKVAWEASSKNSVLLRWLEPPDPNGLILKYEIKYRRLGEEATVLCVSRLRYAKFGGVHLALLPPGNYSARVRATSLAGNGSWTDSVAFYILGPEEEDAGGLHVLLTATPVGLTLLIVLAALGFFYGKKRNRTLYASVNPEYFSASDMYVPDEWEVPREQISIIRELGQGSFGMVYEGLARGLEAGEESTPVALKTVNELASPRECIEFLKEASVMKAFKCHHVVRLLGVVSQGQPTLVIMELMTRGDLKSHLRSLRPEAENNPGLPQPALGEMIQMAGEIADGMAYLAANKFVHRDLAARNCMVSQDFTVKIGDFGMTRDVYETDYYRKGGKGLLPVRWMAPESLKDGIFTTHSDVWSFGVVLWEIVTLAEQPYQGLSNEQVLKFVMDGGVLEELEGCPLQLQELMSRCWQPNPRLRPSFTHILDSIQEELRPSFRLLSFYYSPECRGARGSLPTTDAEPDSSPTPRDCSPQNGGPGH
Ephrin type-B receptor 1 (Homo sapiens), sequence (P54762 whole entry): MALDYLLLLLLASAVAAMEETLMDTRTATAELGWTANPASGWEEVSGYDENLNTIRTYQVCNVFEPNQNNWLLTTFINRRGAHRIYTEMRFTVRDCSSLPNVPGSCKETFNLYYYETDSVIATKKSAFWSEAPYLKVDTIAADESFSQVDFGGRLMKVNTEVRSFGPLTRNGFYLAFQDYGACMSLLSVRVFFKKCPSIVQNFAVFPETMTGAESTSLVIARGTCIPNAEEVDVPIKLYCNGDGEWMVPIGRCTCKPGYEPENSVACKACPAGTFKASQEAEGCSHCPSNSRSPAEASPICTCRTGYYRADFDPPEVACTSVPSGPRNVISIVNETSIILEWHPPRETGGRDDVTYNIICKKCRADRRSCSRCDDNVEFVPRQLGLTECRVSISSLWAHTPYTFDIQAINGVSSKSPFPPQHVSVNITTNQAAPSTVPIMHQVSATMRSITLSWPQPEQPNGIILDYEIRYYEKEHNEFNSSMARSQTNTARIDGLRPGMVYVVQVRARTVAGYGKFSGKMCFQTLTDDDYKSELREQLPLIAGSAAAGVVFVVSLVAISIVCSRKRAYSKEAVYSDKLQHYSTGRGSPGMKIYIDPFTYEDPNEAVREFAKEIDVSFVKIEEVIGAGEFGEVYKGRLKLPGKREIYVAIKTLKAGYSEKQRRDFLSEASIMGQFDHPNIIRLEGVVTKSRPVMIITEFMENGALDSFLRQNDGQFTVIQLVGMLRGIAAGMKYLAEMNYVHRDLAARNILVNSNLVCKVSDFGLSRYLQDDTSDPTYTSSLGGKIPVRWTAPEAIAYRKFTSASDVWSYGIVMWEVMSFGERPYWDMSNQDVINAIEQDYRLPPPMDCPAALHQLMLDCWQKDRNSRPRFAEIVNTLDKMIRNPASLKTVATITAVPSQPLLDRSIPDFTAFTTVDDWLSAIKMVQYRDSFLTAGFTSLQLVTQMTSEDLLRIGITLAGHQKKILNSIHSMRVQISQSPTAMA
Cyclin-dependent kinase 8, sequence (P49336 whole entry): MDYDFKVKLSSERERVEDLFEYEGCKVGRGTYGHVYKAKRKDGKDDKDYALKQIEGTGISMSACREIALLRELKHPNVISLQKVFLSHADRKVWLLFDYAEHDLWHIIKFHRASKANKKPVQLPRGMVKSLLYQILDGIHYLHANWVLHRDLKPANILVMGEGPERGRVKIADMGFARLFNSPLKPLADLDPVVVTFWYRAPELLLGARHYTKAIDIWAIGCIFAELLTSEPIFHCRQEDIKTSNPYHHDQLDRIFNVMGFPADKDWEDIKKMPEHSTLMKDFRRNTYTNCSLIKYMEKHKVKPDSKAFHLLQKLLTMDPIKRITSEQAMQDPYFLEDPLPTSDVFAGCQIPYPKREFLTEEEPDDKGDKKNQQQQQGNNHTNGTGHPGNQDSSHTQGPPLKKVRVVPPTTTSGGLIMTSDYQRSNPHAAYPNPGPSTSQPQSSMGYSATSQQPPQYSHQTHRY
Tyrosine-protein kinase FRK (Homo sapiens), sequence (P42685 whole entry): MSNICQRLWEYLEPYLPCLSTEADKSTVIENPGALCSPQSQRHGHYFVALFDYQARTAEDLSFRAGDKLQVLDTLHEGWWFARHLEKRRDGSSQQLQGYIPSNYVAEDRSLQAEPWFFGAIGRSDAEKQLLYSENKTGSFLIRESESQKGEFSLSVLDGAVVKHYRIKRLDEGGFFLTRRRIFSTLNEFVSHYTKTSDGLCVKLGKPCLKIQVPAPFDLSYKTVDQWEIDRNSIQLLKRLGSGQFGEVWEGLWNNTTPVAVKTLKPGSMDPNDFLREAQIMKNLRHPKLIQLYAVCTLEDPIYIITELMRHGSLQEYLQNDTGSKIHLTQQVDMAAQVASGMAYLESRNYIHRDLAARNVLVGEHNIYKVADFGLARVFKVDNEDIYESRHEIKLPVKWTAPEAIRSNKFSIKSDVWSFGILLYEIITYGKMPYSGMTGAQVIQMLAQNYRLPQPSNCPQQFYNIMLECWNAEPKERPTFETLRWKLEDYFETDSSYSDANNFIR

In the case of NC(=O)c1cccc(-c2cnc3[nH]ccc3c2)c1, the inhibition [1] is reported as 31.1%, the Activity (HCT-116 [2]) is reported as “Dose-Dependent Effect” and the inhibition [3] is reported as 15.8%. For the same compound, the CL/F [4] was 285 mL/min/kg, the Activity [5] was “Non-Toxic” and the IC50 (CDK6/cyclin D1) was 594 nM. The inhibition [6] was 18.9%, the Activity [7] was “Active” and the inhibition [8] was 16.2%. For the same compound, the inhibition [9] was 0%, the inhibition [10] was 7.41% and the inhibition [11] was 0%. The IC50 [12] was > 1000 nM, the inhibition [13] was 0% and the inhibition [14] was 4.7%. The inhibition [15] was 0%, the Activity [16] was “Non-Toxic” and the inhibition [17] was 16.6%. The GI50 (HCT-116 [18]) was > 50000 nM, the inhibition [19] was 13.1% and the GI50 (MOLM-13) was 1570 nM. For the same compound, the inhibition [20] was 8.89%, the inhibition [21] was 0% and the inhibition [22] was 3.82%. The Tmax [23] was 4.98 min, the Activity (HL-60 [24]) was 79.4% and the IC50 (CDK9/cyclin T1) was 711 nM. The clearance [25] was 118 mL/min/kg, the Activity (HL-60 [26]) was “inactive” and the inhibition [27] was 0%. The inhibition [28] was 0.43%.
